Laboratory results taken from patent US20250127896A1, “CHIMERIC TIM4 RECEPTORS AND USES THEREOF” (CERO THERAPEUTICS HOLDINGS, INC., priority 2021, published 2025).
“Also recorded” adds a separate entry of the source.

How the values were obtained:
[1] = test system: phosphatidylethanolamine (PE); assay: Single induction plate assay: IFN-γ by CER T cells on plate-bound phosphatidylethanolamine (control); assay type: cell-based
Description: FIGS. 19A-19C: CER T cells are activated and produce IFN-γ in response to phosphatidylserine engagement in a cell-free in vitro system. FIG. 19A: IFN-γ production in response phosphatidylserine (PS). IFN-γ production was induced in CER-1236 and CER-1234 T cells stimulated with PS (FIG. 19A), but not with phosphatidylethanolamine (PE) (FIG. 19B). […] FIG. 19C: CER1236 T cells are capable of recursive stimulation in vitro. Recursive IFN-γ induction with 3 serial stimulations at the indicated time points following a 24-hour rest after the first stimulation.
FIG. 33A-33C: CER T cells are activated and produce IFN-γ in response to phosphatidylserine engagement in a cell-free in vitro system. FIG. 33A: IFN-γ production in response phosphatidylserine (PS). IFN-γ production was induced in CER-1236 and CER-1234 T cells stimulated with PS (FIG. 33A), but not with phosphatidylethanolamine (PE) (FIG. 33B). […]
CER T-cell activation was assessed by measuring induction of IFN-gamma by plate- and cell-based assays. […] CER T cells were added and IFN-γ levels were measured 24 hours after ligand exposure by ELISA. EC50 concentrations were determined by nonlinear regression (agonist vs. response-variable slope (4 parameters)). […] Cell-based assay: cytokine induction was assessed by multiparametric ELISA using conditioned supernatants harvested after 120 hours from the cytotoxicity assay described below.

Jeko1 TMEM30A−/− cells [2] = assay: Uptake/engulfment of pHrodo-labeled JeKo-1 PS+ (TMEM30A−/−) cells by CER T cells; assay type: cell-based; conditions: for uptake/engulfment of JeKo-1 PS+ (TMEM30A−/−) tumor cell fragments: pHrodo label, in vitro co-culture
Procedure: FIG. 20: FACs and imaging-based detection of pHrodo dye-labeled tumor cell phagocytosis and endocytosis.
(§1) Statistical analysis was performed using 2-way ANOVA.

Jeko1 TMEM30A−/− cells [3] = assay: CER T cell cytotoxicity against Jeko1 TMEM30A−/− cells (Incucyte); assay type: cell-based; conditions: for cytotoxic function against Jeko1 TMEM30A−/− cells: co-culture assays
Procedure: FIG. 22: CER1234 or CER1236 T cells display cytotoxic function against Jeko1 TMEM30A^−/− MCL cells as measured by incucyte assay.
as §1

A2780 cells = conditions: for A2780 cells eliminated, single agent: compared to untreated; for A2780 cells eliminated, combination with niraparib: niraparib 0.5 μM; for A2780 cells eliminated, combination with niraparib / A2780 cells eliminated, combination with olaparib: after 5 days of co-culture; for A2780 cells eliminated, combination with olaparib: olaparib 1.5 μM
Procedure: FIG. 34B: At 120 hours, the ratio of cells remaining in treated samples compared to untreated A2780 samples was quantified using the incucyte data from FIG. 34A. FIG. 34C: Proliferation of CER T cells in co-culture assays.
At day 0, media was exchanged and donor T cells from three subjects (FIG. 28) transduced with CER-1234, CER-1236, or control CER-1183 (FIG. 27A) were added at various effector:target ratios to A2780 cells treated with PARPi to assess chimeric Tim4 receptor-T cell activation, cytokine production, proliferation, and cytotoxic responses. Chimeric Tim4 receptor-T cells immunophenotyping and bulk supernatant analysis was performed on day 2 and day 5 following initiation of co-culture.
CER T-cell cytotoxic function was evaluated using the Incucyte® live-cell analysis system in co-culture assays with A2780 cells. A2780 cells engineered to constitutively express mCherry were pretreated with 1.5 μM olaparib, 0.5 μM niraparib or no drug for 96 hours. CER T cells (expanded for 6 days after transduction) in T-cell optimizer media containing IL-2, IL-7, and IL-15 were co-cultured with A2780 cells at an effector:target (E:T) ratio of 1:2 in the presence of the same concentrations of olaparib or niraparib.

[4] = test system: A2780 ovarian cancer cells; assay: Cytokine production by CER T cells co-cultured with PARP inhibitor-treated A2780 cells; assay type: cell-based, human; conditions: for TNF-α, IFN-γ, granzyme B induction: PARP inhibitor-treated A2780, E:T 1:1
Procedure: FIGS. 35A-35C: Cytokine production by CER T cells in response to co-culture with PARP inhibitor-treated A2780 ovarian cancer cells. Samples from left to right: no drug, niraparib treated, and olaparib treated. FIG. 35A-IFN-γ. FIG. 35B-TNF-α. FIG. 35C-granzyme B.
CER T-cell activation was assessed by measuring induction of IFN-gamma by plate- and cell-based assays. Single induction plate assay: varying concentrations of phosphatidylserine (PS) or phosphatidylethanolamine (PE), a control membrane phospholipid not recognized by wild type TIM-4 (wtTIM-4), were coated onto high-binding tissue culture plates. CER T cells were added and IFN-γ levels were measured 24 hours after ligand exposure by ELISA. EC50 concentrations were determined by nonlinear regression (agonist vs. response-variable slope (4 parameters)). Induction by recursive stimulation plate assay: CER T cells were added to phosphatidylserine coated plates (2.5-20 μg/mL PS coating). Five days later, CER T cells were transferred to uncoated plates with fresh T cell optimizer media for 24 hours. Then, CER T cells were transferred again to a fresh PS coated plate. Supernatant was collected to assess IFN-γ induction by ELISA at various timepoints during re-stimulation (24, 72, and 120 hours). Cell-based assay: cytokine induction was assessed by multiparametric ELISA using conditioned supernatants harvested after 120 hours from the cytotoxicity assay described below.

[5] = either drug combined, 96 hours, compared to CER-1234 with no drug

Substance: CER-1236: chimeric Tim4 receptor: Tim4 binding domain-CD28tm-CD28-CD3z-TLR2 TIR, SEQ ID NO:19; tested as transduced T cells
- IFN-γ production in response to phosphatidylethanolamine [1]: but not to phosphatidylethanolamine (PE)
- phagocytic index (frequency and magnitude of uptake) (Jeko1 TMEM30A−/− cells [2]; compared to wtTim-4, CER1250 and CER1236+actin polymerization inhibitor): Higher frequency and magnitude of uptake
- uptake/engulfment of JeKo-1 PS+ (TMEM30A−/−) tumor cell fragments (Jeko1 TMEM30A−/− cells [2]): increased uptake of JeKo-1 PS^+ tumor cell fragments; also recorded: exhibited increased engulfment of Jeko1 TMEM30A^−/− cells
- cytotoxic function against Jeko1 TMEM30A−/− cells (Jeko1 TMEM30A−/− cells [3]): efficiently eliminate Jeko1 TMEM30A^−/− cells
- cytotoxic activity of CER T cells alone against A2780 cells (A2780 cells): limited cytotoxic activity
- A2780 cells eliminated, single agent (A2780 cells): 19%
- A2780 cells eliminated, combination with niraparib (A2780 cells): 81%
- A2780 cells eliminated, combination with olaparib (A2780 cells): 73%
- TNF-α, IFN-γ, granzyme B induction [4]: induced

Substance: CER-1234: chimeric Tim4 receptor: Tim4 binding domain-CD28tm-CD28-TLR2 TIR-CD3z, SEQ ID NO:18; tested as transduced T cells
- IFN-γ production in response to phosphatidylethanolamine [1]: but not to phosphatidylethanolamine (PE)
- uptake/engulfment of JeKo-1 PS+ (TMEM30A−/−) tumor cell fragments (Jeko1 TMEM30A−/− cells [2]): increased uptake of JeKo-1 PS^+ tumor cell fragments
- targets eliminated (Jeko1 TMEM30A−/− cells [3]; JeKo-1 PS+ cells, 96 hrs, low effector:target ratios): 90%
- cytotoxic function against Jeko1 TMEM30A−/− cells (Jeko1 TMEM30A−/− cells [3]): efficiently eliminate Jeko1 TMEM30A^−/− cells
- cytotoxic activity of CER T cells alone against A2780 cells (A2780 cells): limited cytotoxic activity
- A2780 cells eliminated, single agent (A2780 cells): 39%
- A2780 cells eliminated, combination with niraparib (A2780 cells): 58%
- A2780 cells eliminated, combination with olaparib (A2780 cells): 66%
- TNF-α, IFN-γ, granzyme B induction [4]: induced
- Interferon-γ increase [4, 5]: 7 fold
- granzyme B increase [4, 5]: 5-7 fold
